Results reported in the Kinase Knowledgebase extract (Sharma et al. 2016).
pKi: −log10 of the molar value.

What follows are compounds tested against PIK3CG (human) (UniProt P48736) (assay: Inhibition of PIK3CG Kinase Activity).
PIK3CG (human), sequence (P48736 whole entry, looked up): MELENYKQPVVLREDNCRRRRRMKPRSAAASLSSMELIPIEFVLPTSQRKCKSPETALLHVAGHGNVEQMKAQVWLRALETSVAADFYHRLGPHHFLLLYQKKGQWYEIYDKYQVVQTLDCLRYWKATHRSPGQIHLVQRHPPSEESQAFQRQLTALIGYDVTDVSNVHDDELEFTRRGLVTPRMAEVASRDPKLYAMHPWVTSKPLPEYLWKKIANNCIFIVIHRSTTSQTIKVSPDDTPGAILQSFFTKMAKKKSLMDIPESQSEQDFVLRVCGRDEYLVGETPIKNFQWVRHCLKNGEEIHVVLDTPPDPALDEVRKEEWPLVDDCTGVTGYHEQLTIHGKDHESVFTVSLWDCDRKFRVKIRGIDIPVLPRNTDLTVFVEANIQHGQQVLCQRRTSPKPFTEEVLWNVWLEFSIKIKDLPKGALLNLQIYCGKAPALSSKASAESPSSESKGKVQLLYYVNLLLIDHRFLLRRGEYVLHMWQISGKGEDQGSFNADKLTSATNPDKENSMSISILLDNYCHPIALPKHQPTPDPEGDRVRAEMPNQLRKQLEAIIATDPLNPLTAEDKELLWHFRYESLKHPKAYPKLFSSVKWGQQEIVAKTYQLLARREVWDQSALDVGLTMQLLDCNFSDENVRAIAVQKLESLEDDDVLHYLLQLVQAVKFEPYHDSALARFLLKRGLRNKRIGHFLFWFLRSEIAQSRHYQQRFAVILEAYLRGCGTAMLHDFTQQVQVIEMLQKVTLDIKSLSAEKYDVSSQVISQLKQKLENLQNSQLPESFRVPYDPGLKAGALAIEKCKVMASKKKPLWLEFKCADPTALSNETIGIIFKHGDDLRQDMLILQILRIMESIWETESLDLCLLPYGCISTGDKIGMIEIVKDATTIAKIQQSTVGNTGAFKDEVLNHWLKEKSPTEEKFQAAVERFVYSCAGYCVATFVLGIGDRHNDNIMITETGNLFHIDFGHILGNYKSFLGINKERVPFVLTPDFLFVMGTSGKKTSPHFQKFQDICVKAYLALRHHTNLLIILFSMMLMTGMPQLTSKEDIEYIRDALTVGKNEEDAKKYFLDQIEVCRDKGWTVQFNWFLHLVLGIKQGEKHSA

SMILES | pKi
COc1cc(-c2cc(C)c3c(n2)[C@@H](C)N(c2cnn(CC(F)(F)F)c2)C3=O)cnc1C | > 7.00
COc1cc(-c2cc(OC)c3c(n2)CN(c2cnn(CC(F)(F)F)c2)C3=O)cnc1OC | > 7.00
COCCn1cc(N2Cc3nc(-c4cnc(OC)c(OC)c4)ccc3C2=O)ccc1=O | 6.31 to 7.00
COc1ncc(-c2cc(C)c3c(n2)CN(c2cnn(CC(F)(F)F)c2)C3=O)cc1OC1CCOCC1 | > 7.00
COc1cc(-c2ccc3c(n2)CN(c2ccc(N4CCC(N(C)C)C4)nc2)C3=O)cnc1OC (centres undefined) | > 7.00
COc1cc(-c2cc(C)c3c(n2)CN(c2ccc(C(F)(F)F)nc2)C3=O)cnc1OC | > 7.00
CCc1cc(-c2cnc(OC)c(OC)c2)nc2c1C(=O)N(c1cn[nH]c1)C2(C)C | > 7.00
CCOc1ncc(-c2ccc3c(c2)CN(c2cnn(CC#N)c2)C3=O)cc1OC | > 7.00
COc1ccc(-c2cc(C)c3c(n2)CN(c2cnn(CC(F)(F)F)c2)C3=O)s1 | > 7.00
COc1cc(-c2ccc3c(n2)CN(c2cnn(CCn4ccc(C)n4)c2)C3=O)cnc1OC | 6.31 to 7.00
COc1cc(-c2ccc3c(n2)CN(c2cnn(CC#N)c2)C3=O)cnc1OC | > 7.00
CCOc1cc(-c2cc(C)c3c(n2)C(C)N(c2cnn(CC(F)F)c2)C3=O)cnc1C (centres undefined) | > 7.00
COc1ccc(-c2cc(C)c3c(c2)CN(c2cnn(CC(F)(F)F)c2)C3=O)nc1OC | > 7.00
Cc1cc(-c2cncc(OC(F)F)c2)nc2c1C(=O)N(c1cn[nH]c1)[C@H]2C | > 7.00
Cc1cc(-c2cncc(C(=O)NC3CCOC3)c2)nc2c1C(=O)N(c1cnn(CC(F)(F)F)c1)C2(C)C (centres undefined) | > 7.00
COc1cc(-c2ccc3c(n2)CN(c2cnn(CCN4CCOCC4)c2)C3=O)cnc1OC | 6.31 to 7.00
COc1cc(-c2ccc3c(n2)CN(c2cnn(Cc4ccn(C)n4)c2)C3=O)cnc1OC | > 7.00
COc1cc(-c2cc(C)c3c(n2)C(C)(C)N(c2cnn(CC(F)(F)F)c2)C3=O)cnc1F | > 7.00
Cc1cc(-c2ccc(Cl)c(O)c2)nc2c1C(=O)N(c1cnn(CC(F)(F)F)c1)C2 | > 7.00
COc1cc(-c2cc(C)c3c(n2)[C@@]2(CCCO2)N(c2cnn(CC(F)(F)F)c2)C3=O)cnc1OC | > 7.00
COc1cncc(-c2cc(C)c3c(n2)C2(CCC2)N(c2cnn(CC(F)(F)F)c2)C3=O)c1 | > 7.00
CCn1cc(N2Cc3nc(-c4ccc(OC)c(OC)c4)cc(C)c3C2=O)cn1 | > 7.00
COc1cc(-c2ccc3c(n2)CN(c2cnn(Cc4cscn4)c2)C3=O)cnc1OC | > 7.00
CCOc1ncc(-c2cc(C)c3c(n2)C(OC(C)C)N(c2cnn(CC(F)(F)F)c2)C3=O)cc1OC (centres undefined) | > 7.00

SMILES | pKi
COc1cc(-c2cc(C)c3c(n2)CN(c2cnn(CC(F)(F)F)c2)C3=O)cnc1OC | > 7.00
COc1cc(-c2cc(C)c3c(n2)CN(c2cc(O)[nH]n2)C3=O)cnc1OC | > 7.00
CCn1nc(N2Cc3nc(-c4cnc(OC)c(OC)c4)ccc3C2=O)cc1COC | > 7.00
COc1cncc(-c2cc(C)c3c(n2)[C@@H](C)N(c2ccn(C[C@H](C)O)n2)C3=O)c1 | > 7.00
COc1cc(-c2ccc3c(n2)[C@@H](C)N(c2cn[nH]c2)C3=O)cnc1OC | > 7.00
COc1cc(-c2ccc3c(n2)CN(c2cnn([C@@H](CO)C(F)(F)F)c2)C3=O)cnc1OC | > 7.00
COc1cc(-c2ccc3c(n2)C(O)N(c2cnn(CC(F)(F)F)c2)C3=O)cnc1OC (centres undefined) | > 7.00
COc1ncc(-c2cc(C)c3c(n2)C(C)(C)N(c2cnn(CC(F)(F)F)c2)C3=O)cc1NS(=O)(=O)N(C)C | > 7.00
CCC1(O)c2nc(-c3cnc(OC)c(OC)c3)cc(C)c2C(=O)N1c1cnn(CC(F)(F)F)c1 (centres undefined) | > 7.00
COc1cc(-c2ccc3c(n2)CN(c2cnn(CCn4cccn4)c2)C3=O)cnc1OC | 6.31 to 7.00
COc1ccc(-c2cc(C)c3c(n2)CN(c2cnn(CC#N)c2)C3=O)nc1OC | > 7.00
C#CCNC(=O)c1cc(-c2cc(C)c3c(n2)C(C)(C)N(c2cnn(CC(F)(F)F)c2)C3=O)cnc1OC | > 7.00
COc1cc(-c2ccc3c(n2)CN(c2cnn(CC4CNC(=O)O4)c2)C3=O)cnc1OC (centres undefined) | > 7.00
CCOc1ncc(-c2cc(C)c3c(n2)CN(c2cnn(CC#N)c2)C3=O)cc1OC | > 7.00
COc1cc(-c2ccc3c(n2)CN(c2ccnc(OCC(F)F)c2)C3=O)cnc1OC | 6.31 to 7.00
Cc1cc(-c2cncc(S(C)(=O)=O)c2)nc2c1C(=O)N(c1cnn(CC(F)(F)F)c1)[C@@H]2C | > 7.00
COc1cncc(-c2cc(C)c3c(n2)C(C)N(c2cnn(CC(F)(F)F)c2)C3=O)c1 (centres undefined) | > 7.00
COc1cc(-c2ccc3c(n2)[C@H](C)N(c2ccn(CC(F)(F)F)n2)C3=O)cnc1OC | > 7.00
CCOc1ncc(-c2cc(C)c3c(n2)C2(CCOCC2)N(c2cnn(CC(F)(F)F)c2)C3=O)cc1OC | > 7.00
COc1cncc(-c2cc(C)c3c(n2)C2(C[C@@H](O)[C@@H](O)C2)N(c2cnn(CC(F)(F)F)c2)C3=O)c1 (some centres undefined) | > 7.00
CCOc1cncc(-c2cc(C)c3c(n2)C(C)(C)N(c2cn[nH]c2)C3=O)c1 | 6.31 to 7.00
COc1cncc(-c2cc(C)c3c(c2)CN(c2cnn(CC(F)(F)F)c2)C3=O)c1 | > 7.00
CCOc1ncc(-c2cc(C)c3c(n2)C(C)(O)N(c2cnn(CC(F)(F)F)c2)C3=O)cc1OC (centres undefined) | > 7.00
COc1cc(-c2ccc3c(n2)CN(c2ccc(N4CCC(OC)CC4)nc2)C3=O)cnc1OC | > 7.00

SMILES | pKi
COc1cc(-c2ccc3c(n2)CN(c2cnn(Cc4csc(C)n4)c2)C3=O)cnc1OC | > 7.00
CCOc1cc(-c2cc(C)c3c(n2)CN(c2cnn(CC#N)c2)C3=O)cnc1OCC | > 7.00
COc1cc(-c2ccc3c(n2)CN(c2ccc(OCC(F)(F)F)nc2)C3=O)cnc1OC | 6.31 to 7.00
CCc1cc(N2Cc3nc(-c4cnc(OC)c(OC)c4)cc(C)c3C2=O)nn1CC(F)(F)F | > 7.00
COc1ncc(-c2ccc3c(n2)CN(c2cnn(CC(F)(F)F)c2)C3=O)cc1OC(F)F | > 7.00
CCc1ncc(-c2cc(C)c3c(n2)C(C)(C)N(c2cnn(CC(F)(F)F)c2)C3=O)cc1OC | > 7.00
COc1cc(-c2ccc3c(n2)[C@@H](C)N(c2ccn(CC(C)(C)F)n2)C3=O)cnc1OC | > 7.00
CCOc1ncc(-c2cc(C)c3c(n2)[C@@]2(CCCO2)N(c2cnn(CC(F)(F)F)c2)C3=O)cc1OC | > 7.00
Cc1cc(-c2cncc(S(C)(=O)=O)c2)nc2c1C(=O)N(c1cnn(CC(F)(F)F)c1)C2 | > 7.00
COc1cc(-c2cc(C)c3c(n2)CN(c2cncc(OCC(F)(F)F)c2)C3=O)cnc1OC | > 7.00
COCCOc1ncc(-c2cc(C)c3c(n2)[C@H](C)N(c2ccn(C)n2)C3=O)cc1OC | > 7.00
COc1cc(-c2ccc3c(n2)CN(c2cnn(CCC(=O)O)c2)C3=O)cnc1OC | > 7.00
COc1cc(-c2cc(C)c3c(n2)C(OCC(F)(F)F)N(c2cnn(CC(F)(F)F)c2)C3=O)cnc1OC (centres undefined) | > 7.00
COc1cc(-c2cc(C)c3c(n2)CN(c2ccn([C@H]4CCOC4)n2)C3=O)cnc1F | > 7.00
COc1cc(-c2ccc3c(n2)CN(c2cnn(CCN4CCN(C(C)=O)CC4)c2)C3=O)cnc1OC | 6.31 to 7.00
CCOc1cncc(-c2cc(C)c3c(n2)[C@](C)(OC)N(c2cnn(CC(F)(F)F)c2)C3=O)c1 | > 7.00
COc1cc(-c2cc(C)c3c(n2)CN(c2ncccn2)C3=O)cnc1OC | 6.31 to 7.00
Cc1cc(-c2cncc(OC(F)F)c2)nc2c1C(=O)N(c1cnn(C[C@H](C)O)c1)C2C (some centres undefined) | > 7.00
Cc1cc(-c2cncc(OCCF)c2)nc2c1C(=O)N(c1cnn(CC(F)(F)F)c1)C2 | > 7.00
Cc1cc(-c2cncc(OCC(F)F)c2)nc2c1C(=O)N(c1cnn(CC(F)(F)F)c1)C2(C)C | > 7.00
COCCNC(=O)c1cncc(-c2cc(C)c3c(n2)C(C)(C)N(c2cnn(CC(F)(F)F)c2)C3=O)c1 | > 7.00
CCOc1cncc(-c2cc(C)c3c(n2)CN(c2cnn(CC(F)(F)F)c2)C3=O)c1 | > 7.00
COc1cncc(-c2cc(C)c3c(n2)C(C)(OC)N(c2cnn(CC(F)(F)F)c2)C3=O)c1 (centres undefined) | > 7.00
Cc1cc(-c2cnc(N)c(OC(F)F)c2)nc2c1C(=O)N(c1cnn(CC(F)(F)F)c1)C2 | > 7.00

SMILES | pKi
COc1cc(-c2cc(C)c3c(n2)CN(c2cncnc2)C3=O)cnc1OC | > 7.00
Cc1cc(-c2cncc(S(=O)(=O)N(C)C)c2)nc2c1C(=O)N(c1cnn(CC(F)(F)F)c1)C2(C)C | > 7.00
COc1cc(-c2ccc3c(n2)CN(c2ccc(N4CC[C@@H](F)C4)nc2)C3=O)cnc1OC | 6.31 to 7.00
COc1cc(-c2ccc3c(n2)[C@@H](C)N(c2cc[nH]n2)C3=O)cnc1OC | > 7.00
Cc1cc(-c2cncc(OCC(F)F)c2)nc2c1C(=O)N(c1cc[nH]n1)C2C (centres undefined) | 6.31 to 7.00
CCn1ccc(N2C(=O)c3ccc(-c4cnc(OC)c(OC)c4)nc3[C@@H]2C)n1 | > 7.00
COc1cc(-c2ccc3c(n2)CN(c2ccn(CC(F)(F)F)n2)C3=O)cnc1OC | > 7.00
COc1cc(-c2ccc3c(c2)CN(c2cnn([C@@H](C)C#N)c2)C3=O)cnc1OC | > 7.00
COc1cc(-c2cc(C)c3c(n2)CN(c2cnn(CC(F)F)c2)C3=O)cnc1OC | > 7.00
CCN(CC)CCn1cc(N2Cc3nc(-c4cnc(OC)c(OC)c4)ccc3C2=O)cn1 | 6.31 to 7.00
COc1cc(-c2ccc3c(n2)CN(c2ccc(N4CCC(CCO)CC4)nc2)C3=O)cnc1OC | > 7.00
CCOC1c2nc(-c3cnc(OC)c(OC)c3)cc(C)c2C(=O)N1c1cnn(CC(F)(F)F)c1 (centres undefined) | > 7.00
COc1cc(-c2ccc3c(c2)CN(c2cnn(CC4COc5ccccc5O4)c2)C3=O)cnc1OC (centres undefined) | 6.31 to 7.00
CCOc1ncc(-c2cc(C)c3c(n2)C(OC)N(c2cnn(CC(F)(F)F)c2)C3=O)cc1OC (centres undefined) | > 7.00
CCCOC1c2nc(-c3cnc(OC)c(OC)c3)cc(C)c2C(=O)N1c1cnn(CC(F)(F)F)c1 (centres undefined) | > 7.00
COc1ncc(-c2ccc3c(n2)CN(c2cnn(C(C)(C)C#N)c2)C3=O)cc1OC(F)F | > 7.00
Cc1cc(-c2cncc(OCC(F)(F)F)c2)nc2c1C(=O)N(c1cnn(CC(F)F)c1)C2 | > 7.00
COc1cncc(-c2cc(C)c3c(n2)[C@@H](C)N(c2cn[nH]c2)C3=O)c1 | > 7.00
CCc1cncc(-c2cc(C)c3c(n2)C(C)(C)N(c2cnn(CC(F)(F)F)c2)C3=O)c1 | > 7.00
COc1cncc(-c2cc(C)c3c(n2)C(C)(C)N(c2cnn(CC(F)(F)F)c2)C3=O)c1 | > 7.00
COc1cc(-c2ccc3c(n2)[C@H](C)N(c2ccn(C[C@H](C)O)n2)C3=O)cnc1OC | > 7.00
Cc1cc(-c2cccnc2)nc2c1C(=O)N(c1cnn(CC#N)c1)C2 | > 7.00
